Tests used:
rat mesangial cell line [1] = test: TGF-β stimulated 3H-proline incorporation in mesangial cells (Example 5); format: cell-based; settings: for Collagen synthesis: inhibition ranked against tranilast (T) or FT11
Protocol: (§1) A well-characterized cloned rat mesangial cell line (gift of D Nikolic-Patterson) is cultured in DMEM with FBS, 100 U/mL penicillin, and 100 ug/mL streptomycin in a humidified 5% CO2 atmosphere at 37° C. Cells are plated into 24-well culture dishes in DMEM/10% FBS at low density and allowed to adhere overnight. Cells are used between passages 20 and 40. The subconfluent cells are starved overnight in DMEM/0.1% FBS containing 150 uM L-ascorbic acid, prior to 4 hours of pre-treatment with or without tranilast or the FT compounds, followed by the addition of 5 ng/mL rhTGF-β11 (R&D Systems) and 1 uCi/mL of L-(2,3,4,5-^3H)-proline. Control wells have the compounds but no TGF-β1 added. Cells are incubated for a further 44 hours during which time their appearance is visually monitored. The cells are then washed three times in ice-cold PBS, twice in ice cold 10% TCA and solubilized in 750 uL 1M NaOH for 45 minutes at 37° C. or overnight at 4° C. A 500 uL aliquot is neutralized with 500 uL 1M HCl and 10 mL scintillation fluid (Instagel Plus-Perkin-Elmer) added. Counts are performed on a beta counter.
To normalize the proline incorporation counts to take into account the proliferative effects of TGF-β1, a BioRad protein assay is performed on a 100-150 uL aliquot of the remaining solubilized cells. The sample is neutralized with an equal amount of 1M HCl prior to the assay. The BSA standards used to construct the standard curve have the same amount of 1M NaOH and 1M HCl added as is present in the samples for assay.
Proline incorporation is expressed as cpm/ug protein. In order to compare inter-assay results, the incorporation is expressed as percentage reduction of TGF stimulated proline incorporation, where TGF alone gives 0% reduction and the zero control gives 100% reduction.

rat mesangial cell line [2] = test: Effect on mesangial cell appearance (visual monitoring during proline assay); format: cell-based
Protocol: as §1
Compounds in Bold have Minimal Effect on Cell Appearance and Viability

Mesangial cells = test: Mesangial cell MTT assay with TGF-β; format: cell-based, rat; settings: suppressed = reduced cell viability
Protocol: Mesangial cells are plated at 15000 cells per well into 96-well culture dishes in DMEM/10% FBS and allowed to adhere overnight. The subconfluent cells are starved overnight in DMEM/0.1% FBS, prior to 4 hours of pre-treatment with or without tranilast or the FT compounds. Following the addition of 5 ng/mL rhTGF-β1, the cells are incubated in a humidified 5% CO2 atmosphere at 37° C. for 44 hours. Control wells have the compounds but no TGF-β1 added. The culture medium is removed from each well and 100 uL MTT (0.5 mg/mL) in starve medium is added to each well. The plates are incubated for a further 4 hours at 37° C. The culture medium is then removed and replaced with 100 μL isopropanol and incubated at 37° C. for 20 to 30 minutes, until the blue formazan crystals have dissolved. The absorbance is measured at a wavelength of 570 nm with background subtraction of 690 nm.
Suppressed MTT Result Indicates Reduced Cell Viability

[3] = Rattus norvegicus, Mesangial cell, 5 ng/mL TGF-β1, 44 h, read-out: Mesangial Cell Assay TGF-β % reduction of TGF-β stimulation_proline inc.

Row | Structure (SMILES) | Effect on mesangial cell appearance (rat mesangial cell line [2]; no concentration stated) | melting point [°C] | Effect on mesangial cell appearance (rat mesangial cell line [2]; @ 10 μM) | Effect on mesangial cell appearance (rat mesangial cell line [2]; @ 30 μM) | inhibition at 10 µM (rat mesangial cell line [1]; [3]) [%] | inhibition at 50 µM (rat mesangial cell line [1]; Rattus norvegicus, Mesangial cell, @ 50 μM, 5 ng/mL TGF-β1, 44 h, read-out: Mesangial Cell Assay TGF-β % reduction of TGF-β stimulation_proline inc.) [%] | Collagen synthesis (rat mesangial cell line [1]) | inhibition at 3 µM (rat mesangial cell line [1]; [3]) [%] | Mesangial cell MTT Assay TGF-β (Mesangial cells; @ 30 μM) | inhibition at 30 µM (rat mesangial cell line [1]; [3]) [%] | Effect on mesangial cell appearance (rat mesangial cell line [2]; @ 100 μM) | inhibition at 100 µM (rat mesangial cell line [1]; Rattus norvegicus, Mesangial cell, @ 100 μM, 5 ng/mL TGF-β1, 44 h, read-out: Mesangial Cell Assay TGF-β % reduction of TGF-β stimulation_proline inc.) [%] | inhibition at 1 µM (rat mesangial cell line [1]; [3]) [%] | Mesangial cell MTT Assay TGF-β (Mesangial cells; @ 10 μM) | Effect on mesangial cell appearance (rat mesangial cell line [2]; @ all concentrations)
1 | COc1ccc(/C=C/C(=O)Nc2ccccc2C(=O)O)cc1O [Analogue 7, (E)-2-[[3-(3-Hydroxy-4-methoxyphenyl)-1-oxo-2-propenyl]amino]benzoic acid] | stressed | 215 to 216 |  |  | ~50 | 80 | > or =T |  |  |  |  |  |  |  | 
2 | COc1ccc(/C=C/C(=O)Nc2cc3ccccc3cc2C(=O)O)cc1OC [Analogue 8, (E)-3-[[3-(3,4-Dimethoxyphenyl)-1-oxo-2-propenyl]amino]-2-naphthoic acid] | Heavily | 212 to 213 |  |  |  |  | Toxic |  |  |  |  |  |  |  | 
3 | COc1ccc(/C=C/C(=O)Nc2ccc(Br)cc2C(=O)O)cc1OC [Analogue 16, (E)-2-[[3-(3,4-Dimethoxyphenyl)-1-oxo-2-propenyl]amino]-5-bromobenzoic acid] |  | 210 to 213 | lifting off |  | ~50 |  | >>FT11 | ~20 | Suppressed |  |  |  |  |  | 
4 | CCC#CCOc1ccc(/C=C/C(=O)Nc2ccccc2C(=O)O)cc1OC [Analogue 18, (E)-2-[[3-(3-Methoxy-4-(pent-2-ynyloxy)phenyl)-1-oxo-2-propenyl]amino]benzoic acid] |  | 185.5 to 186.5 |  | lifting off | ~70 |  | >>FT11 | ~55 |  |  |  |  |  |  | 
5 | COc1ccc(/C=C/C(=O)Nc2ccccc2C(=O)O)cc1OCc1cn(CC(=O)Nc2ccccc2)nn1 [Analogue 21, (E)-2-[[3-(4-Methoxy-3-((1-(2-oxo-2-(phenylamino)ethyl)-1H-1,2,3-triazol-4-yl)methoxy)phenyl)-1-oxo-2-propenyl]amino]benzoic acid] |  |  |  |  | ~20 |  | =FT11 |  | Suppressed | ~65 | necrotic |  |  |  | 
6 | CC#CCOc1cc(/C=C/C(=O)Nc2ccccc2C(=O)O)ccc1OC [Analogue 23, (E)-2-{[3-(3-(But-2-ynyloxy)-4-methoxyphenyl)-1-oxo-2-propenyl]amino}benzoic acid] |  | 170 to 171 |  |  | 30 to 60 |  | >=FT11 | ~12 |  | 70 to 80 | stress @ | ~80 |  |  | 
7 | COc1cc(/C=C/C(=O)Nc2ccccc2C(=O)O)ccc1OC1CCCCC1 [Analogue 27, (E)-2-{[3-(4-Cyclohexyloxy-3-methoxyphenyl)-1-oxo-2-propenyl]amino}benzoic acid] |  | 90 to 92 | Sparse @ | sick @ 30 μM | 75 to 90 |  | >FT11 | 40 | Suppressed |  | lifting off |  | ~18 |  | 
8 | COc1cc(/C=C/C(=O)Nc2ccccc2C(=O)O)ccc1OCC1CCCCC1 [Analogue 28, (E)-2-{[3-(4-Cyclohexylmethoxy-3-methoxyphenyl)-1-oxo-2-propenyl]amino}benzoic acid] |  | 207 to 210 |  | Stressed @ | ~40 |  | <FT11 |  |  | 173 | Dead @ |  |  | deadly ® | 
9 | C#CCCCCOc1ccc(/C=C/C(=O)Nc2ccccc2C(=O)O)cc1OC [Analogue 33, (E)-2-[[3-(4-(Hex-5-ynyloxy)-3-methoxyphenyl)-1-oxo-2-propenyl]amino]benzoic acid] |  | 148 to 150 |  | Looking bad | 60 |  | >FT11 | 40 |  | 80 |  |  | ~15 | Severely | 
10 | C#CCCCOc1cc(/C=C/C(=O)Nc2ccccc2C(=O)O)ccc1OC [Analogue 36, (E)-2-[[3-(4-Methoxy-3-(pent-4-ynyloxy)phenyl)-1-oxo-2-propenyl]amino]benzoic acid] |  | 154 to 156 |  |  | ~50 |  | =>FT11 |  | Severely | 80 |  |  |  |  | 
11 | C#CCCOc1ccc(/C=C/C(=O)Nc2ccccc2C(=O)O)cc1OC [Analogue 37, (E)-2-[[3-(4-(But-3-ynyloxy)-3-methoxyphenyl)-1-oxo-2-propenyl]amino]benzoic acid] |  | 178 to 180 |  |  | ~50 |  | =FT11 |  |  | 70 | Some death |  |  |  | 

The next lines start with results.

Row | Effect on mesangial cell appearance (rat mesangial cell line [2]; no concentration stated) | melting point [°C] | Effect on mesangial cell appearance (rat mesangial cell line [2]; @ 10 μM) | Effect on mesangial cell appearance (rat mesangial cell line [2]; @ 30 μM) | Structure (SMILES) | inhibition at 10 µM (rat mesangial cell line [1]; [3]) [%] | inhibition at 50 µM (rat mesangial cell line [1]; Rattus norvegicus, Mesangial cell, @ 50 μM, 5 ng/mL TGF-β1, 44 h, read-out: Mesangial Cell Assay TGF-β % reduction of TGF-β stimulation_proline inc.) [%] | Collagen synthesis (rat mesangial cell line [1]) | inhibition at 3 µM (rat mesangial cell line [1]; [3]) [%] | Mesangial cell MTT Assay TGF-β (Mesangial cells; @ 30 μM) | inhibition at 30 µM (rat mesangial cell line [1]; [3]) [%] | Effect on mesangial cell appearance (rat mesangial cell line [2]; @ 100 μM) | inhibition at 100 µM (rat mesangial cell line [1]; Rattus norvegicus, Mesangial cell, @ 100 μM, 5 ng/mL TGF-β1, 44 h, read-out: Mesangial Cell Assay TGF-β % reduction of TGF-β stimulation_proline inc.) [%] | inhibition at 1 µM (rat mesangial cell line [1]; [3]) [%] | Mesangial cell MTT Assay TGF-β (Mesangial cells; @ 10 μM) | Effect on mesangial cell appearance (rat mesangial cell line [2]; @ all concentrations)
12 |  | 197 to 198 |  |  | C#CCCOc1cc(/C=C/C(=O)Nc2ccccc2C(=O)O)ccc1OC [Analogue 38, (E)-2-[[3-(3-(But-3-ynyloxy)-4-methoxyphenyl)-1-oxo-2-propenyl]amino]benzoic acid] | ~40 |  | =FT11 |  |  | 65 | Some death |  |  |  | 
13 |  | 165 to 166 |  | Looking bad | CCC#CCCOc1ccc(/C=C/C(=O)Nc2ccccc2C(=O)O)cc1OC [Analogue 39, (E)-2-[[3-(4-(Hex-3-ynyloxy)-3-methoxyphenyl)-1-oxo-2-propenyl]amino]benzoic acid] | ~70 |  | >FT11 |  |  | 100 |  |  |  |  | 
14 |  | 163 to 165 |  |  | CCC#CCCOc1cc(/C=C/C(=O)Nc2ccccc2C(=O)O)ccc1OC [Analogue 40, (E)-2-[[3-(3-(Hex-3-ynyloxy)-4-methoxyphenyl)-1-oxo-2-propenyl]amino]benzoic acid] | ~70 |  | >FT11 |  |  | 100 | dead |  |  |  | 
15 |  | 169 to 170 |  |  | CCCCC#CCCOc1ccc(/C=C/C(=O)Nc2ccccc2C(=O)O)cc1OC [Analogue 41, (E)-2-[[3-(3-Methoxy-4-(oct-3-ynyloxy)phenyl)-1-oxo-2-propenyl]amino]benzoic acid] |  |  | Toxic |  |  |  |  |  |  |  | Cells damaged @
16 |  | 157 to 158 |  |  | CCCCC#CCCOc1cc(/C=C/C(=O)Nc2ccccc2C(=O)O)ccc1OC [Analogue 42, (E)-2-[[3-(4-Methoxy-3-(oct-3-ynyloxy)phenyl)-1-oxo-2-propenyl]amino]benzoic acid] |  |  | Toxic |  |  |  |  |  |  |  | Cells damaged @
17 |  | 82 to 85 |  |  | CCC(CC)Oc1ccc(/C=C/C(=O)Nc2ccccc2C(=O)O)cc1OC [Analogue 45, (E)-2-[[3-(3-Methoxy-4-(pent-3-yloxy)phenyl)-1-oxo-2-propenyl]amino]benzoic acid] | 80 |  | >FT11 |  |  | 142 | Cells damaged |  |  |  | 
